Assay results as given in ChEMBL document CHEMBL4229410, “Facile construction of fused benzimidazole-isoquinolinones that induce cell-cycle arrest and apoptosis in colorectal cancer cells” (Bioorg Med Chem, 2018).

What was measured:
[1] = molecular target: Serine/threonine-protein kinase PLK4 (Homo sapiens, UniProt O00444); assay: Binding affinity to partial length human PLK4 (M1 to S273 residues) expressed in mammalian expression system by KINOMEscan assay
[2] = molecular target: Mitogen-activated protein kinase 3 (Homo sapiens, UniProt P27361); assay: Inhibition of full length human ERK1 (M1 to P379 residues) expressed in bacterial expression system assessed as residual activity at 5 uM by KINOMEscan assay relative to control
[3] = molecular target: Mitogen-activated protein kinase 9 (Homo sapiens, UniProt P45984); assay: Inhibition of full length human JNK2 (M1 to Q382 residues) expressed in mammalian expression system assessed as residual activity at 5 uM by KINOMEscan assay relative to control
[4] = tested on: HT-29; assay: Induction of apoptosis in human HT-29 cells assessed as necrotic cells at 25 uM after 48 hrs by Annexin-V-FITC/propidium iodide staining based flow cytometry (reference value: 1.6%); assay type: functional
[5] = molecular target: Inhibitor of nuclear factor kappa-B kinase subunit beta (Homo sapiens, UniProt O14920); assay: Binding affinity to full length human IKKbeta (M1 to S756 residues) expressed in mammalian expression system by KINOMEscan assay
[6] = tested on: SW-620; assay: Induction of apoptosis in human SW620 cells assessed as necrotic cells at 50 uM after 48 hrs by Annexin-V-FITC/propidium iodide staining based flow cytometry (reference value: 0.9%); assay type: functional
[7] = tested on: SW-620; assay: Induction of apoptosis in human SW620 cells assessed as live cells at 25 uM after 48 hrs by Annexin-V-FITC/propidium iodide staining based flow cytometry (reference value: 97.5%); assay type: functional
[8] = molecular target: Phosphatidylinositol 4,5-bisphosphate 3-kinase catalytic subunit gamma isoform (Homo sapiens, UniProt P48736); assay: Binding affinity to human PIK3CG (S144 to A1102 residues) expressed in mammalian expression system by KINOMEscan assay
[9] = molecular target: Dual specificity tyrosine-phosphorylation-regulated kinase 1B (Homo sapiens, UniProt Q9Y463); assay: Binding affinity to full length human DYRK1B (M1 to S629 residues) expressed in bacterial expression system by KINOMEscan assay
[10] = molecular target: Tyrosine-protein kinase receptor UFO (Homo sapiens) (UniProt P30530); assay: Inhibition of human AXL (R497 to Y821 residues) expressed in bacterial expression system assessed as residual activity at 5 uM by KINOMEscan assay relative to control
[11] = tested on: HT-29; assay: Cell cycle arrest in human HT-29 cells assessed as accumulation at G1-phase at 75 uM after 48 hrs by propidium iodide staining based flow cytometry (reference value: 41.86%); assay type: functional
[12] = molecular target: T1, Mitogen-activated protein kinase 14 (Homo sapiens, UniProt Q16539); assay: Binding affinity to full length human p38alpha (M1 to S360 residues) expressed in bacterial expression system by KINOMEscan assay
[13] = tested on: SW-620; assay: Induction of apoptosis in human SW620 cells assessed as reduction in MCL1 expression after 48 hrs by Western blot analysis; assay type: functional, cell-based
[14] = molecular target: Casein kinase I isoform gamma-2 (Homo sapiens, UniProt P78368); assay: Inhibition of full length human CSNK1G2 (M1 to K415 residues) expressed in bacterial expression system assessed as residual activity at 5 uM by KINOMEscan assay relative to control
[15] = molecular target: Serine/threonine-protein kinase PAK 1 (Homo sapiens, UniProt Q13153); assay: Inhibition of human PAK1 (S149 to H545 residues) expressed in bacterial expression system assessed as residual activity at 5 uM by KINOMEscan assay relative to control
[16] = tested on: SW-620; assay: Induction of apoptosis in human SW620 cells assessed as early apoptotic cells at 75 uM after 48 hrs by Annexin-V-FITC/propidium iodide staining based flow cytometry (reference value: 0.4%); assay type: functional
[17] = molecular target: Activin receptor type-1B (Homo sapiens) (UniProt P36896); assay: Inhibition of human ACVR1B (S187 to I505 residues) expressed in bacterial expression system assessed as residual activity at 5 uM by KINOMEscan assay relative to control
[18] = molecular target: Serine/threonine-protein kinase PLK3 (Homo sapiens, UniProt Q9H4B4); assay: Inhibition of partial length human PLK3 (A42 to L334 residues) expressed in mammalian expression system assessed as residual activity at 5 uM by KINOMEscan assay relative to control
[19] = molecular target: Serine/threonine-protein kinase B-raf (Homo sapiens, UniProt P15056); assay: Binding affinity to human BRAF (S429 to E741 residues) expressed in mammalian expression system by KINOMEscan assay
[20] = molecular target: MAP kinase-interacting serine/threonine-protein kinase 2 (Homo sapiens, UniProt Q9HBH9); assay: Inhibition of human MKNK2 (G63 to S388 residues) expressed in mammalian expression system assessed as residual activity at 5 uM by KINOMEscan assay relative to control
[21] = molecular target: Aurora kinase B (Homo sapiens, UniProt Q96GD4); assay: Binding affinity to human AURKB (D25 to A303 residues) expressed in mammalian expression system by KINOMEscan assay
[22] = molecular target: Epidermal growth factor receptor (Homo sapiens, UniProt P00533, L858R); assay: Binding affinity to partial length human EGFR (R669 to V1011 residues) L858R mutant expressed in bacterial expression system by KINOMEscan assay
[23] = molecular target: T1, Mitogen-activated protein kinase 14; assay: Inhibition of full length human p38alpha (M1 to S360 residues) expressed in bacterial expression system assessed as residual activity at 5 uM by KINOMEscan assay relative to control
[24] = molecular target: MAP kinase-activated protein kinase 2 (Homo sapiens, UniProt P49137); assay: Inhibition of human MAPKAPK2 (V48 to D345 residues) expressed in bacterial expression system assessed as residual activity at 5 uM by KINOMEscan assay relative to control
[25] = molecular target: Cyclin-dependent kinase 16 (Homo sapiens, UniProt Q00536); assay: Binding affinity to human PCTK1 (G160 to A474 residues) expressed in mammalian expression system by KINOMEscan assay
[26] = molecular target: Hepatocyte growth factor receptor (Homo sapiens, UniProt P08581); assay: Binding affinity to human MET (D1010 to S1367 residues) expressed in bacterial expression system by KINOMEscan assay
[27] = molecular target: Activin receptor type-1B (Homo sapiens, UniProt P36896); assay: Binding affinity to human ACVR1B (S187 to I505 residues) expressed in bacterial expression system by KINOMEscan assay
[28] = tested on: SW-620; assay: Induction of apoptosis in human SW620 cells assessed as live cells at 50 uM after 48 hrs by Annexin-V-FITC/propidium iodide staining based flow cytometry (reference value: 97.5%); assay type: functional
[29] = molecular target: Rho-associated protein kinase 2 (Homo sapiens, UniProt O75116); assay: Binding affinity to human ROCK2 (M1 to T431 residues) expressed in mammalian expression system by KINOMEscan assay
[30] = molecular target: Casein kinase I isoform delta (Homo sapiens, UniProt P48730); assay: Inhibition of full length human CSNK1D (M1 to K409 residues) expressed in bacterial expression system assessed as residual activity at 5 uM by KINOMEscan assay relative to control

T1 sequence (Q16539 whole entry, the tested form may be a part): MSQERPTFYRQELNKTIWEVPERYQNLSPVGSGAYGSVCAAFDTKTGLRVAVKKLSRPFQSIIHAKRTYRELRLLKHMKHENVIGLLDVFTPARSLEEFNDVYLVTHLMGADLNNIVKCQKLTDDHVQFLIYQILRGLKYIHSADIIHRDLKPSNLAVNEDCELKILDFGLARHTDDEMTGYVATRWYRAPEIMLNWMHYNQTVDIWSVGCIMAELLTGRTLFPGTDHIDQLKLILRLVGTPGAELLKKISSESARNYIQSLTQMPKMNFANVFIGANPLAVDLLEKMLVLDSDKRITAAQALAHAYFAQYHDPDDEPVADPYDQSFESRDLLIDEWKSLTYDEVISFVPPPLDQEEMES
Sequence of Epidermal growth factor receptor (P00533 25-1210 L858R limits assumed): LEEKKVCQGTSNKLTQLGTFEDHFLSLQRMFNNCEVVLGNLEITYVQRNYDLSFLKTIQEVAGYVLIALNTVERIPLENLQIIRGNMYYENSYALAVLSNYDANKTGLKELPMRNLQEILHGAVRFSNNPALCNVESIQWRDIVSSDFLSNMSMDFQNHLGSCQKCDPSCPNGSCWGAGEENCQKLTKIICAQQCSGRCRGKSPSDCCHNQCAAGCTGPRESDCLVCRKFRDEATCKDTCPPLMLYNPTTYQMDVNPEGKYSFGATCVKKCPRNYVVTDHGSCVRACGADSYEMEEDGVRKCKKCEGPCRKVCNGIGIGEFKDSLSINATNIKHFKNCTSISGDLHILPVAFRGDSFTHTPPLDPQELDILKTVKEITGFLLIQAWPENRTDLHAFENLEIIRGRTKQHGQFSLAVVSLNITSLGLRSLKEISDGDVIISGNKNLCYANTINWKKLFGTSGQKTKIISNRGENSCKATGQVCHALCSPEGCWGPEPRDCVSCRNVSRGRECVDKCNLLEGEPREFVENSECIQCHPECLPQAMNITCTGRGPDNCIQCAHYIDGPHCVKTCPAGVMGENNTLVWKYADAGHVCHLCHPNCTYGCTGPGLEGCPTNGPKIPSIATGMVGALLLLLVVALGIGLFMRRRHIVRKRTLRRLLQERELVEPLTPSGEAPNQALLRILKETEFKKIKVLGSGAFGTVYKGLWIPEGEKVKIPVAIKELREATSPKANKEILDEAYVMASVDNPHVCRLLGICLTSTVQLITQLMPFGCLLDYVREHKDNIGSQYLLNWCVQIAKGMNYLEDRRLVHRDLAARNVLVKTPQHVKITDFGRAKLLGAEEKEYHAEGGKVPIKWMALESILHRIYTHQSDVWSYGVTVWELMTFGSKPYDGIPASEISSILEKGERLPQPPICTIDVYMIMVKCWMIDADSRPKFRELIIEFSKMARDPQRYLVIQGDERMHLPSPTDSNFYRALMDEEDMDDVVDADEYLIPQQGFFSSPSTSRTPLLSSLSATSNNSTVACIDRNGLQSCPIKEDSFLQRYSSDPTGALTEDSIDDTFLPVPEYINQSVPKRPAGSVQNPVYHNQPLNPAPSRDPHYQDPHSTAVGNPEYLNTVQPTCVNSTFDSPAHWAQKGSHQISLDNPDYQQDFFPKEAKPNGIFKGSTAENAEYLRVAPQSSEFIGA
Sequence of Dual specificity tyrosine-phosphorylation-regulated kinase 1B (Q9Y463 whole entry, the tested form may be a part): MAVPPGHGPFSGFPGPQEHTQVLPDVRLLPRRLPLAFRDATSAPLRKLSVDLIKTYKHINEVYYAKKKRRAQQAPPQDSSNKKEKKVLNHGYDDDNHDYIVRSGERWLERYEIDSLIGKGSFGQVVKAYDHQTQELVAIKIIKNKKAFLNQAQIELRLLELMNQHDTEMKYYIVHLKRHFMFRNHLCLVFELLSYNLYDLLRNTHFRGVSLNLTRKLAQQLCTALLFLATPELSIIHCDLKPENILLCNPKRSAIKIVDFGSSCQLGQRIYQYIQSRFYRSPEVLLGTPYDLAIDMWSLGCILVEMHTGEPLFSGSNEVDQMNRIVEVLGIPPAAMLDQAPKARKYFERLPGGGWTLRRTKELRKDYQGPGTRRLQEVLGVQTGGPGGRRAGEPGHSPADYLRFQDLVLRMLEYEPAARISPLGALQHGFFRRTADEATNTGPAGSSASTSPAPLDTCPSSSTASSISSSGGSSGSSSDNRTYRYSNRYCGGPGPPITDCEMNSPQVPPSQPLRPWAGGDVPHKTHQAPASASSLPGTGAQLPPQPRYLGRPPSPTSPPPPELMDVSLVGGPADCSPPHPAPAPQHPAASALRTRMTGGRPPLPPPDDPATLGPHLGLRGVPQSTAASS
Sequence of Serine/threonine-protein kinase PAK 1 (Q13153 whole entry, the tested form may be a part): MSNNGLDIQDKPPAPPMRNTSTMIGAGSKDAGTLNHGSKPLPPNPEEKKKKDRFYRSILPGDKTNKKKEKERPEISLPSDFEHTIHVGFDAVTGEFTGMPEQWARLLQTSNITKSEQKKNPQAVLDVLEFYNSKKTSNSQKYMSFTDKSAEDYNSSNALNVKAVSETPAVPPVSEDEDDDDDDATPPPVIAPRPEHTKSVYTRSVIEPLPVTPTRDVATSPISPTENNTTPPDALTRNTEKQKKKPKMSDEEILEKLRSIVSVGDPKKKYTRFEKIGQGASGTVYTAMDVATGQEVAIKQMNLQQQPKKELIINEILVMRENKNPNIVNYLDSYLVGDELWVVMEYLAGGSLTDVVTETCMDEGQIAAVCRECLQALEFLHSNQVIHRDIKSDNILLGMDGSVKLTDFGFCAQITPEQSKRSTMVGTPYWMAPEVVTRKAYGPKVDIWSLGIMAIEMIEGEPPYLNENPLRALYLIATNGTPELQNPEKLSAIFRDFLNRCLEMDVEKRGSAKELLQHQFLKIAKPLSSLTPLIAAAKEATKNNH
Sequence of Serine/threonine-protein kinase PLK3 (Q9H4B4 whole entry, looked up, the tested form may be a part): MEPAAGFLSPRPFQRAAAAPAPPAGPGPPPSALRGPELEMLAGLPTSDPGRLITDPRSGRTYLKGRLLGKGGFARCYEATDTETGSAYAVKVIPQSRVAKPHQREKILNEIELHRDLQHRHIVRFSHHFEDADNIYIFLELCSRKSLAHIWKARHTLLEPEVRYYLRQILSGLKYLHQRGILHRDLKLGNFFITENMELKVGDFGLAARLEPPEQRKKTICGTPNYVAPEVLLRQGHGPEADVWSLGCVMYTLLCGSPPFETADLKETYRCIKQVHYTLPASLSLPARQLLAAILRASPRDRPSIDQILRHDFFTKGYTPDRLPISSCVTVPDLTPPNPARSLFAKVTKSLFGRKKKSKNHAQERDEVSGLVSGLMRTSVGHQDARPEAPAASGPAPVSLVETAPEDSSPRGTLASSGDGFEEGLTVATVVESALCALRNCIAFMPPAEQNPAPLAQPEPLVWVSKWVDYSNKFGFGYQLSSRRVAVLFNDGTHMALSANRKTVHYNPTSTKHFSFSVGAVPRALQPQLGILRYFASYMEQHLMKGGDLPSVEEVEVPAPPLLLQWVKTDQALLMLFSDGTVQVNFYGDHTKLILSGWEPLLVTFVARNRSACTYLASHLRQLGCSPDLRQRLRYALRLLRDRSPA
Sequence of Activin receptor type-1B (Homo sapiens) (P36896 whole entry, the tested form may be a part): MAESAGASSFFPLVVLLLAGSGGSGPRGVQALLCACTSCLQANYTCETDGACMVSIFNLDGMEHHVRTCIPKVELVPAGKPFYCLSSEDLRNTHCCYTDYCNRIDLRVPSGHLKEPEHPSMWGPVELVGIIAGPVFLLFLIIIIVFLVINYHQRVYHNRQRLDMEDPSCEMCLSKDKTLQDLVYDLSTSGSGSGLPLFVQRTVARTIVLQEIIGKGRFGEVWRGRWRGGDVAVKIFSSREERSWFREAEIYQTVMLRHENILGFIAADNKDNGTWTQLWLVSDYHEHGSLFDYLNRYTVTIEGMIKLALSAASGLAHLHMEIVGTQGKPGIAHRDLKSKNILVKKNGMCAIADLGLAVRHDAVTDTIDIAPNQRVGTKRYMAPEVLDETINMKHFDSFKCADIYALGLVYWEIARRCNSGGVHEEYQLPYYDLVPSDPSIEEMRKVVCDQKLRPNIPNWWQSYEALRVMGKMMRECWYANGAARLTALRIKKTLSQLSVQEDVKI
Sequence of Activin receptor type-1B (P36896 whole entry, the tested form may be a part): as above
Sequence of Aurora kinase B (Q96GD4 whole entry, the tested form may be a part): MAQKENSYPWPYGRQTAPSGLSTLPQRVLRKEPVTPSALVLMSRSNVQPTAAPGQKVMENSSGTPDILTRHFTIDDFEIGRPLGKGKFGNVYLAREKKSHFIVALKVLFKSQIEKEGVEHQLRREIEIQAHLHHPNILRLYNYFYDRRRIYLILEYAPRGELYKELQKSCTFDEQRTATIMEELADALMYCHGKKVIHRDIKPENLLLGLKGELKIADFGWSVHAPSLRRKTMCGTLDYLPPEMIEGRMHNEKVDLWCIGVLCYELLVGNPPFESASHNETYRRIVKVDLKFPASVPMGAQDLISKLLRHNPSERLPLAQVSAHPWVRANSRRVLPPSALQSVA
Sequence of Casein kinase I isoform gamma-2 (P78368 whole entry, looked up, the tested form may be a part, canonical isoform): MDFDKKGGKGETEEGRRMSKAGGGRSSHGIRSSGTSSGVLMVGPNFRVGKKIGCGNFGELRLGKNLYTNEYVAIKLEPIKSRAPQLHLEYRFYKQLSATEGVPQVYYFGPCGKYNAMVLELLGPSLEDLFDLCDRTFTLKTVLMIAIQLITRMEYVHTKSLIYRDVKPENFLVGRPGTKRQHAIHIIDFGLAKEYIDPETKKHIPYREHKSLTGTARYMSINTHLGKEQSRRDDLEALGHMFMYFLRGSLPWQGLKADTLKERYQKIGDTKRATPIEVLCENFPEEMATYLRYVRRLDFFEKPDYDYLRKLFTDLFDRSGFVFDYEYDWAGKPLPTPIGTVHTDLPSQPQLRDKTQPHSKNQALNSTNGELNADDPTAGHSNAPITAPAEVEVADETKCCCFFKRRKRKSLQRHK

CC(C)CN(C(=O)c1cccnc1)c1c2ccccc2c(=O)n2c1[nH]c1ccccc12
Kd [1]: ≥ 5 µM
Activity [2]: 82%
Activity [3]: 96%
Activity [4]: 2.7%
Kd [5]: ≥ 5 µM
Activity [6]: 5.5%
Activity [7]: 92.1%
Kd [8]: ≥ 5 µM
Kd [9]: ≥ 5 µM
Activity [10]: 100%
Activity [11]: 43.36%
Kd [12]: ≥ 5 µM
Activity [13]: Dose-dependent effect
Activity [14]: 76%
Activity [15]: 100%
Activity [16]: 0.2%
Activity [17]: 92%
Activity [18]: 87%
Kd [19]: ≥ 5 µM
Activity [20]: 92%
Kd [21]: ≥ 5 µM
Kd [22]: ≥ 5 µM
Activity [23]: 100%
Activity [24]: 100%
Kd [25]: ≥ 5 µM
Kd [26]: ≥ 5 µM
Kd [27]: ≥ 5 µM
Activity [28]: 81.7%
Kd [29]: ≥ 5 µM
Activity [30]: 90%
